Entries after “also recorded” stand apart in the source; their conditions may differ.
Legend:
[1] = tested on: zebrafish kmt2d morphants; experiment: Rescue of convergent-extension (CE) phenotype in kmt2d morphants; type: in vivo; conditions: 100 nM; for rescue of CE defects, repeated experiments: repeated four times by two investigators; for proportion of embryos showing CE defects vs vehicle (DMSO): primary screen, kmt2d-MO, 8-10 somite stage
Procedure: FIG. 1: In vivo screen using BRAF/MEK/ERK inhibitors. (a) Flow chart of the experimental design. We started the screening with 29 compounds (27 active BRAF/MEK/ERK inhibitors, and 2 negative controls). 26 compounds passed the solubility test and 24 of those passed the toxicity test. For the primary screen, 24 compounds were assessed for their ability to rescue the convergent-extension (CE) phenotype of zebrafish kmt2d morphants, followed by rescue tests of additional phenotypes (jaw and brain) within the kmt2d morphant, or CE of additional genetic KS models. (b) Toxicity results. Twenty embryos at the 8-cell stage were incubated in egg water containing 100 nM, 1 μM, and 10 μM of the 26 compounds. After 24 hours, larvae were scored for toxicity. Black bar: death; grey bar: abnormal morphology; white bar: nontoxic. (c) Embryos were injected with kmt2d-MO at the 2-4 cell stage and soaked in egg water containing 100 nM of each compound at the 8-cell stage. After 24 hours, larvae were scored for CE. […] The efficacy of each compound was determined by a chi-square test in which Class I and Class II were considered together. Note that the compounds were tested in two groups (compounds 1-19 and compounds 20-29), each with its own set of controls.
This library was screened against validated transient suppression reagent for kmt2d. Experiments injected kmt2d-morpholino (MO) into one- to two-cell-stage embryos and soaked them in egg water containing 100 nM of each compound approximately one hour after injection (eight-cell stage).
Morpholinos (MO) were obtained from Gene Tools (Gene Tools, LLC, Philomath, Oreg., USA) and have been described previously (see, Bogershausen, N. et al. J Clin Invest 125, 3585-99 (2015)); kmt2d-MO: 5′-[…]-3′(SEQ ID NO: 1) (5 ng); kdm6a-MO: 5′-[…] (SEQ ID NO: 2) (10 ng). kmt2d-MO and kdm6a-MO was injected into wild type (WT) Ekkwill (EK) zebrafish embryos obtained from natural matings at the 1-4 cell stage. CRISPR target sequences (rap1a: 5′-[…]-3′ (SEQ ID NO: 3) [120 pg], rap1b: 5′-[…]-3′ (SEQ ID NO: 4) [120 pg] (see, Bogershausen, N. et al. J Clin Invest 125, 3585-99 (2015)), and kmt2d: 5′-[…] (SEQ ID NO: 5) [50 pg]) were identified by crispr.mit.edu and cloned into pT7-gRNA (Addgene, Cambridge, USA) following the protocol described in http://www.addgene.org/crispr/Chen/. Guide (g)RNAs were synthesized using the T7 MEGAshortscript kit (ThermoFisher Scientific). […]
For convergence and extension (CE) phenotyping, embryos were scored as described (see, Leitch, C. C. et al. Nat Genet 40, 443-8 (2008)) at the 8-10 somite stage, and images were captured using an AZ100 microscope and NIS Elements software (Nikon). […] The distance between Meckel's (MK) and ceratohyal (CH) cartilages was measured on ventral bright field images with Image J (NIH). […]

[2] = Mass spectrometry of compound exposure in zebrafish embryos; type: in vivo; conditions: for detection of compound in embryos by MS: bathing, 100 nM or 1 μM, five days
Procedure: FIG. 5: Successful delivery of small molecules into zebrafish embryos. (a) Experimental design and sample preparation for the mass spectrometry (MS) analysis of compound concentration. (b) Quantitative MS analysis results of compound exposure in embryos. The right-most two columns give the concentrations of each compound detected by MS in zebrafish, quantifying in vivo exposures resulting from egg water compound doses of 100 nM and 1 μM.
For this purpose, mass spectrometry (MS) was performed in embryos treated with each of compounds 2 and 8. Wild-type embryos were treated with 100 nM (the concentration used for the rescue experiments) or 1 μM (as a positive detection threshold given that the intracellular concentration of each compound is unknown at the beginning of the experiment). After five days of treatment, embryos were harvested and subjected to MS analysis (FIG. 5A).
WT EK embryos were transferred to a 12-well plate at the 8-cell stage and bathed in egg water containing 0.001% DMSO or 100 nM of each compound (n=30/condition). Embryos were incubated at 28° C.; egg water containing compound was refreshed every 24 hours until harvest. Compound exposure was assessed essentially as described (see, Berghmans, S. et al. J Pharmacol Toxicol Methods 58, 59-68 (2008)); larvae were anaesthetized on ice, washed once with fresh compound-free ice-cold egg water, washed once with ice-cold PBS, and then transferred to a microfuge tube and centrifuged briefly before removing all excess liquid. Samples were macerated using a plastic pestle and frozen at −20° C. prior to analysis. Mass spectrometry analysis was conducted at Covance Laboratories (Cary, N.C., USA). Briefly, the macerated larvae were diluted in 1 ml water/acetonitrile (50/50), sonicated for 3×10 s and vortexed. For all compounds, a control sample containing embryos exposed to 0.001% DMSO was analyzed as a control. Calibration curves were generated by spiking aliquots of control zebrafish homogenate (prepared as described above) with known amounts of compound 29 (N3521-4-2).

SMILES	rescue of CE defects, repeated experiments [1]	proportion of embryos showing CE defects vs vehicle (DMSO) [1]	detection of compound in embryos by MS [2]	exposure of inhibitor in embryos (MS quantitation) ([2]; 100 nM dose)	concentration at 5 days ([2]; EK (wild-type), zebrafish, whole embryo/larva homogenate, other: bathing in egg water containing compound, egg water dose 100 nM, read-out: effective in vivo exposure (MS))
CC[C@@H](CO)Nc1ncc(C)c(-c2c[nH]c(C(=O)N[C@H](CO)c3cccc(Cl)c3)c2)n1 [Compound 2, N-((S)-1-(3-chlorophenyl)-2-hydroxyethyl)-4-(2-(((S)-1-hydroxybutan-2-yl)amino)-5-methylpyrimidin-4-yl)-1H-pyrrole-2-carboxamide]	rescue CE defects; also recorded: consistent and significant rescue	decreased the proportion of embryos showing CE defects	Detectable concentrations	–	–
CC(C)c1nc(-c2cccc(NS(=O)(=O)c3c(F)cccc3F)c2F)c(-c2ccnc(N)n2)s1 [Compound 8, desmethyl-Dabrafenib]	rescue CE defects; also recorded: consistent and significant rescue	decreased the proportion of embryos showing CE defects	Detectable concentrations	sub-nanomolar	0.26 nM
